Series [1] deals with T1, Estrogen receptor (Homo sapiens, UniProt P03372).
T1 sequence (P03372 whole entry): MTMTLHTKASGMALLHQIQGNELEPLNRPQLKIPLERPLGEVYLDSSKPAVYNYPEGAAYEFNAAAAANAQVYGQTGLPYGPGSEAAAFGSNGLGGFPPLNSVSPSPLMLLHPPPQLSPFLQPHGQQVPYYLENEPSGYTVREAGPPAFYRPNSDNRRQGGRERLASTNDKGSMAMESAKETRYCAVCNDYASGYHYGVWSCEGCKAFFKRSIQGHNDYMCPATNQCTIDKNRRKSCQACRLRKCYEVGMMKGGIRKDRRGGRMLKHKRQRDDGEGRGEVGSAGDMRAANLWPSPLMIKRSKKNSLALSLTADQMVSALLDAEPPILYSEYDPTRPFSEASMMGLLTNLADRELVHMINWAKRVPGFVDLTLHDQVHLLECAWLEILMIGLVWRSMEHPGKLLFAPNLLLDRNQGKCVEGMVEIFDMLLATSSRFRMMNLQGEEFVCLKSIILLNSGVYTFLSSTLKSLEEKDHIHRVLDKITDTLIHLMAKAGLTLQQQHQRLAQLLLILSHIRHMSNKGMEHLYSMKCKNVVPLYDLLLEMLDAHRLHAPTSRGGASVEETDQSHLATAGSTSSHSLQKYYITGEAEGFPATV
The series is described as follows: Induction of selective estrogen receptor alpha degradation in human MCF7 cells harboring TK-ERE-Luc assessed as reduction in estradiol-induced transcriptional activity after 24 hrs by luciferase reporter gene assay. The class given is cell-based.

A short description of series [2]: Clearance in C57BL/6 mouse at 1 mg/kg, iv or 3 mg/kg, po. The class given is ADME, organism-based. The note with it: in vivo.
Series [3] in a line: Oral bioavailability in C57BL/6 mouse at 3 mg/kg. The series is classed as ADME, organism-based. The note with it: in vivo.
Series [4] is described as follows: Cmax in C57BL/6 mouse at 3 mg/kg, po. The following applies: in vivo. The series is classed as ADME, organism-based. Also on record: dose 3 mg/kg, route oral.
Series [5] can be described thus: Equilibrium solubility in pH 6.8 buffer at 1 mM after 16 hrs by HPLC based shake flask method. The series is classed as physicochemical.
A short description of series [6]: Clearance in Sprague-Dawley rat at 1 mg/kg, iv or 3 mg/kg, po. The class given is ADME, organism-based. The note with it: in vivo.
Series [7] in a line: Cmax in Sprague-Dawley rat at 3 mg/kg, po. The series is classed as ADME, organism-based. Details: dose 3 mg/kg, route oral. The note with it: in vivo.
A short description of series [8]: Oral bioavailability in Sprague-Dawley rat at 3 mg/kg. The series is classed as ADME, organism-based. The note with it: in vivo.
The target in series [9] is T1, Estrogen receptor. Kind of series: Induction of selective estrogen receptor alpha degradation in human MCF7 cells after 18 to 24 hrs by in-cell Western analysis. The class given is cell-based.

SMILES strings stand for the structures. Converted amounts (≈) assume the structure as drawn. Bounds are passed on as bounds.

What is called IC50 is the point on the concentration scale where inhibition reaches its midpoint. Consider `O=C(O)/C=C/c1ccc(Nc2c(-c3ccc(O)cc3)sc3cc(O)ccc23)cc1`, for which, at Estrogen receptor [1], the concentration for half-maximal inhibition (IC50) is greater than 10 µM.

One may read the bioavailability as the share of a dose that reaches the circulation, judged against a reference dose that is usually intravenous. Read a low bioavailability as little systemic uptake. By Cmax is commonly meant the peak of the concentration-time curve. Take `Cc1cc(F)ccc1-c1sc2cc(O)ccc2c1Oc1ccc(/C=C/C(=O)O)cc1`: the clearance in [2] is 33 mL/min/kg. For the same compound, in series [3], the bioavailability stood at 34%. For the same compound, the Cmax in series [4] amounted to 925 nM.

Broadly, the thermodynamic solubility is solubility found after equilibrating the solid with the medium. Consider `O=C(O)CCc1ccc(Oc2c(-c3ccc(O)cc3)sc3cc(O)ccc23)cc1`, for which the thermodynamic solubility at 16 h, 1000 µM in series [5] is greater than 1000 µM.

`CNC(=O)/C=C/c1ccc(Oc2c(-c3ccc(O)cc3)sc3cc(O)ccc23)cc1`: in series [5], the thermodynamic solubility at 16 h, 1000 µM was less than 5 µM.

In series [2], `CC(C)c1ccccc1-c1sc2cc(O)ccc2c1Oc1ccc(/C=C/C(=O)O)cc1` showed a clearance of 15 mL/min/kg. The bioavailability in [3] was found to be 13%. The compound further gave a Cmax in series [4] of 1180 nM.

Compound `O=C(O)/C=C/c1ccc(Oc2c(-c3ccc(F)cc3C(F)(F)F)sc3cc(O)ccc23)cc1` came in with a clearance in series [2] of 18 mL/min/kg. The compound also registered a bioavailability in series [3] of 30%. For the same compound, in series [4], the highest concentration (Cmax) is 1500 nM.

As to `NC(=O)/C=C/c1ccc(Oc2c(-c3ccc(O)cc3)sc3cc(O)ccc23)cc1`, in series [5], the solubility (thermodynamic) at 16 h, 1000 µM is less than 5 µM.

In the case of `O=C(O)/C=C/c1ccc(Oc2c(-c3ccc(F)cc3)sc3cc(O)ccc23)cc1`, the values for the clearance in series [6] and in [2] were 24 mL/min/kg and 22 mL/min/kg, respectively. Moreover, on Estrogen receptor [1], the IC50 is 1.82 µM. Further, the Cmax in series [7] stood at 847 nM; in series [4], 505 nM. Also, the figures for the bioavailability in series [3] and in series [8] were 19% and 33%, respectively.

Regarding `COCc1ccccc1-c1sc2cc(O)ccc2c1Oc1ccc(/C=C/C(=O)O)cc1`, at Estrogen receptor [9], the midpoint of inhibition, the IC50, lay at 0.003 µM.

Consider `O=C(O)/C=C/c1ccc(Oc2c(-c3ccc(O)cc3)sc3cc(O)ccc23)cc1`, for which the clearance in series [6] amounted to 54 mL/min/kg. In series [7], the Cmax was found to be 80 nM. Moreover, in [5], the thermodynamic solubility at 16 h, 1000 µM worked out at 340 µM (≈ 138 µg/mL). The bioavailability in series [8] was 6%.

In the case of `O=C(O)/C=C/c1ccc(Oc2c(-c3ccc(C(F)(F)F)cc3)sc3cc(O)ccc23)cc1`, the clearance was 30 mL/min/kg in [6] and 6 mL/min/kg in series [2]. Moreover, the Cmax in [7] is 985 nM; in series [4], 1380 nM. The bioavailability in series [3] stood at 28%; in series [8] it was 74%.

As for `CC(F)(F)c1ccccc1-c1sc2cc(O)ccc2c1Oc1ccc(/C=C/C(=O)O)cc1`, the clearance in [2] stood at 14 mL/min/kg. The compound also registered a bioavailability in series [3] of 5%. The compound further displayed a Cmax in series [4] of 187 nM.

These data come from ChEMBL document CHEMBL4020850, “Discovery of LSZ102, a Potent, Orally Bioavailable Selective Estrogen Receptor Degrader (SERD) for the Treatment of Estrogen Receptor Positive Breast Cancer” (J Med Chem, 2018).
